Measured values reported in patent publication US10092537B2, “Use for PAI-1 inhibitor” (RENASCIENCE CO., LTD., priority 2013, dated 2018).

What was measured:
hematopoietic stem cells [1] = test: Hematopoietic recovery after bone-marrow transplantation, compounds a, b, c (Experimental Example 5); format: in vivo, mice; conditions: for frequency of hematopoietic stem cells / self-renewal capacity of hematopoietic stem cells: compound a 100 mg/kg oral 4 days, compounds b and c 10 mg/kg oral 6 consecutive days after bone-marrow transplantation
Method: The procedures of Experimental Examples 4 (1) and 4 (4) were repeated using compounds b and c, instead of compound a, as a test compound.
Compound a was orally administered in an amount of 100 mg/kg for 4 consecutive days after bone-marrow transplantation. Compounds b and c were orally administered in an amount of 10 mg/kg for 6 consecutive days after bone-marrow transplantation.
Bone marrow was collected 1 and 3 weeks after bone-marrow transplantation. The total number of the whole bone-marrow cells (FIG. 9E), the proportion (%) of LSK-CD34 negative cells in the whole bone marrow (FIG. 9A), the total number of LSK-CD34 negative cells in the whole bone marrow (FIG. 9B), the proportion (%) of Lin-SLAM cells in the whole bone marrow (FIG. 9C), and the total number of Lin-SLAM cells in the whole bone marrow (FIG. 9D) were measured. The results are shown in the above-stated figures.

hematopoietic stem cells [2] = test: Bone-marrow transplanted mice, compound c, G-CSF and G-CSF neutralizing antibody (Experimental Example 13); format: in vivo; conditions: for G-CSF concentration in the plasma and bone-marrow fluids: 1 week after transplantation
Method: Bone-marrow transplanted mice were prepared in the same manner as in Experimental Example 4, and compound c, G-CSF, and G-CSF neutralizing antibody were examined for the effects. Specifically, the bone-marrow transplanted mice were divided into 5 groups as shown below (each group: n=5) and orally administered respective test drugs.
Group 1: vehicle group (physiological saline was administered via gavage) (“v group”)
Group 2: compound c group (compound c [10 mg/kg/day] was administered via gavage) (“TM group”)
Group 3: G-CSF group (G-CSF [150 μg/kg/day] was administered via gavage) (“G group”)
Group 4: vehicle+anti-G-CSF group (physiological saline+G-CSF neutralizing antibody [500 μg/kg/day] was administered via gavage) (“v+Ab group”)
Group 5: compound c+anti-G-CSF group (compound c [500 μg/kg/day]+G-CSF neutralizing antibody [500 μg/kg/day] was administered via gavage) (“TM+Ab group”)
Concurrently with bone-marrow transplantation, administration of physiological saline (vehicle) to the vehicle group via gavage was started, and the administration continued for 5 consecutive days. Concurrently with bone-marrow transplantation, administration of compound c (10 mg/kg/day) to the compound c group via gavage was started, and the administration continued for 5 consecutive days. Concurrently with bone-marrow transplantation, subcutaneous administration of G-CSF (150 μg/kg/day) to the G-CSF group was started, and the administration continued for 5 consecutive days. Concurrently with bone-marrow transplantation, gavage administration of physiological saline and subcutaneous administration of G-CSF neutralizing antibody (R&D) (500 μg/kg/day) to the vehicle+anti-G-CSF group were started, and the administration continued for 5 consecutive days. Concurrently with bone-marrow transplantation, gavage administration of compound c (10 mg/kg/day) and intraperitoneal administration of G-CSF neutralizing antibody (R&D) (500 μg/kg/day) to the compound c+anti-G-CSF group were started, and the administration continued for 5 consecutive days.
1 week after bone-marrow transplantation, plasma and bone-marrow fluids were collected from mice of each group (v group, TM group, G group, v+Ab group, and TM+Ab group), and the G-CSF concentration (pg/ml) was measured by ELISA. The following were determined in accordance with an ordinary procedure: (B) G-CSF concentration (pg/ml) in bone-marrow fluids, (C) total number of mononucleic cells (×10E7 cell) in the bone marrow, (D) proportion (%) of LSK CD34 negative cells in the bone marrow, (E) total number of LSK CD34 negative cells in the bone marrow, (F) proportion (%) of Lin-SLAM cells in the bone marrow, and (G) total number of Lin-SLAM cells in the bone marrow.

human PAI-1 = human PAI-1 (Homo sapiens, UniProt P05121); test: Measurement of PAI-1 inhibitory activity of compound group 1 (t-PA, Spectrozyme t-PA chromogenic substrate); conditions: read-out: PAI-1 activity %
human PAI-1, sequence (P05121 24-402): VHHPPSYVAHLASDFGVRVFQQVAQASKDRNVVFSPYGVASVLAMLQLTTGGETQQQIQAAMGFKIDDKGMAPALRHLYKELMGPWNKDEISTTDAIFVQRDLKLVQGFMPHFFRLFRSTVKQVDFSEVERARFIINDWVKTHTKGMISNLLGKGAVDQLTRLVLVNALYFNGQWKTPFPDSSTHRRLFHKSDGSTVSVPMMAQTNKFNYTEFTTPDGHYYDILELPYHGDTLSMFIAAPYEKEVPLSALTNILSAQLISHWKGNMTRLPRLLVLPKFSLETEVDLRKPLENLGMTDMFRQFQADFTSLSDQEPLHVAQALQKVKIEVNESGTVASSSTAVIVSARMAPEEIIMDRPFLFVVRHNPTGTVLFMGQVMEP

[3] = test system: human hematopoietic stem cells; test: Transplantation of human CD34+ umbilical cord blood cells into irradiated severely immunocompromised mice (Experimental Example 2); format: in vivo; conditions: 100 mg/kg oral, 6 doses, 7 days after cell transplantation
Method: Severely immunocompromised mice (recipient) were exposed to radiation (2Gy), and two days later, human CD34^+ cells isolated from human umbilical cord blood were transplanted into the mice. Concurrently with the transplantation, compound a was orally administered into the mice as a test compound (dosage: 100 mg/kg), and the compound was further administered for 5 consecutive days; i.e., 6 doses in total (see FIG. 2A). 2 days after the last administration (7 days after the cell transplantation), the bone-marrow cells were collected, and the abundance ratio of human hematopoietic cells was measured with a flow cytometric analyzer, whereas the cKitL concentration (μg/mL) and VEGF concentration (μg/mL) in the plasma were also measured.

hematopoietic stem cells [4] = test: Bone-marrow transplantation into wild-type mice and tPA-KO-mice (Experimental Example 8 (2)); format: in vivo; conditions: 3 weeks after bone-marrow transplantation
Method: Compound a was administered to wild-type mice and tPA-KO-mice (6 mice for each) that underwent bone-marrow transplantation, and 3 weeks after, the mice were measured for the number of bone-marrow mononucleic cells (BM MNC), the frequency and absolute number of Lin-SLAM cells, and the frequency and absolute number of LSK-CD34 negative cells. Physiological saline was administered to a control group, and the same measurement was conducted.

[5] = Single-dose toxicity test using rat (Experimental Example 6); conditions: 500, 1,000, and 2,000 mg/kg oral gavage
hematopoietic stem cells [6] = test: Fibrinolytic pathway activation and bone-marrow regeneration after lethal radiation (9Gy) and bone-marrow transplantation, compound a versus recombinant tPA (Experimental Example 7)
Method: Within 4 hours, 1.0×10^6 bone-marrow mononucleic cells (BM MNC) were intravenously inoculated into retro-orbital plexus. Concurrently with transplantation, compound a (dosage 100 mg/kg) or recombinant tPA (dosage 100 mg/kg, Eisai Co., Ltd) were administered as a test compound via oral gavage, and the test compound was orally administered for 5 consecutive days (administered group). As a control test, instead of the test compound, physiological saline (vehicle) used for dissolving compound a was orally administered in the same manner (control group).
Blood was collected 2 and 7 days after bone-marrow transplantation, and the active PAI-1 level (ng/mL), active tissue-type plasminogen activator (active tPA), plasmin level (ng/mL), cKit ligand, and total MMP-9 (Matrix metalloprotein-9) in the plasma were measured.

[7] = compound c + G-CSF neutralizing antibody 500 μg/kg/day
[8] = compound a 100 mg/kg oral, 4 consecutive days, 1 and 3 weeks after bone-marrow transplantation, versus vehicle
[9] = 2 and 7 days after transplantation, among control, tPA and compound a groups
[10] = tPA group compared with control group, compound a group compared with tPA group

O=C(Nc1ccc(Cl)cc1C(=O)O)c1cccc(-c2ccccc2)c1 [Example 4, 2-[(biphenyl-3-ylcarbonyl)amino]-5-chlorobenzoic acid]
frequency of hematopoietic stem cells (hematopoietic stem cells [1]): increase
self-renewal capacity of hematopoietic stem cells (hematopoietic stem cells [1]): enhance
number of BM MNC (hematopoietic stem cells [2]; [7]): did not exhibit a decrease
proportion and number of LSK-CD34 negative cells (hematopoietic stem cells [2]; [7]): not decreased
G-CSF concentration in the plasma and bone-marrow fluids (hematopoietic stem cells [2]; [7]): an increase in G-CSF in neither plasma nor bone-marrow fluids
G-CSF concentration in the plasma and bone-marrow fluids (hematopoietic stem cells [2]; single agents: compound c 10 mg/kg/day gavage, G-CSF 150 μg/kg/day, G-CSF neutralizing antibody 500 μg/kg/day with vehicle, versus vehicle): significant increases
proportion and number of LSK CD34 negative cells (hematopoietic stem cells [2]; single agents: compound c 10 mg/kg/day, G-CSF 150 μg/kg/day, G-CSF neutralizing antibody 500 μg/kg/day with vehicle, versus vehicle group): increased
number of BM MNC (hematopoietic stem cells [2]; single agents: compound c 10 mg/kg/day, G-CSF 150 μg/kg/day, versus vehicle group): more increased
activity at 2.5 µM (human PAI-1): 62.1%
activity at 10 µM (human PAI-1): 0.6%

O=C(COCC(=O)N1CCN(C(c2ccccc2)c2ccccc2)CC1)Nc1ccc(Cl)cc1C(=O)[O-].[Na+] [Example 30 (compound group 2), 2-(2-(2-(4-benzhydrylpiperazin-1-yl)-2-oxoethoxy)acetamido)-5-chlorobenzoic acid sodium salt]
absolute number of human hematopoietic cells in the bone marrow, versus control group ([3]; control PBS): 3 to 10 times higher
chimerism of human hematopoietic cells (CD45+) in the bone marrow, versus control group ([3]; control PBS): 2 to 9 times higher
VEGF in the plasma ([3]; versus control): increased
cKitL in the plasma ([3]; versus control): increased
proportion of CD34+ cell (human HSC) contained in human hematopoietic cells ([3]; versus control): increased
frequency of hematopoietic stem cells (hematopoietic stem cells [1]): increase
self-renewal capacity of hematopoietic stem cells (hematopoietic stem cells [1]): enhance
plg level, tPA level, cKitL level, total MMP-9 level in the plasma and white blood cell count in the peripheral blood (hematopoietic stem cells [1]; [8]): significantly higher
proportion and total number of LSK-CD34 negative cells and Lin-SLAM cells in the whole bone marrow (hematopoietic stem cells [1]; [8]): significantly higher
bone-marrow mononucleic cells (hematopoietic stem cells [4]; tPA-KO-mice): did not exhibit an increase
frequency or absolute number of Lin-SLAM cells and of LSK-CD34 negative cells (hematopoietic stem cells [4]; tPA-KO-mice): an increase was also not observed
bone-marrow mononucleic cells (hematopoietic stem cells [4]; wild-type mice): increase
autopsy findings ([5]; after 2 weeks): no particular abnormality
abnormality during 2-week monitoring ([5]; male and female rats): None of the male and female rats showed abnormality
toxicity given in a single dose ([5]; male and female rats, monitored 2 weeks): low
level of cKitL in plasma (hematopoietic stem cells [6]; [9]): highest level
level of plasmin in plasma (hematopoietic stem cells [6]; [9]): highest level
level of total MMP-9 in plasma (hematopoietic stem cells [6]; [9]): highest level
level of active tPA in plasma (hematopoietic stem cells [6]; 7 days after transplantation, among control, tPA and compound a groups): highest level
expression of active PAI-1 in the plasma (hematopoietic stem cells [6]; compound a or recombinant tPA 100 mg/kg, 5 consecutive days, 2 and 7 days after bone-marrow transplantation): did not exhibit an expression of active PAI-1
survival rate on day 28 from bone-marrow transplantation (hematopoietic stem cells [6]; lethal radiation 9Gy, 100 mg/kg, 5 consecutive days, n=15, control group 20%): 70%
platelet count in the peripheral blood (hematopoietic stem cells [6]; [10]): significantly increased
white blood cell count in the peripheral blood (hematopoietic stem cells [6]; [10]): significantly increased
